“Also recorded” adds a separate entry of the source. Like-named read-outs stand apart in the source and are kept apart here.
Key:
[1] = test system: CD4+ T cells from HIV-1-infected individuals; assay: Cell viability (CellTiter-Blue, Zombie Violet) of ex vivo treated CD4+ T cells; assay type: cell-based, human; settings: at the indicated concentrations (up to 500 nM)
Excerpt: FIGS. 15 A-G depict the structural formulae for AZ505, AZ506, and AZ391, and the reactivation of latent HIV-1 with SMYD2 inhibitor X2 (AZ391) in CD4^+ T cells from HIV-1 infected individuals. (A) Structures of each compound are shown. (B) Intracellular HIV-1 mRNA levels in CD4^+ T cells, obtained from an infected individual (#1036) and treated ex vivo with AZ391, JQ1 or a combination of both, in indicated concentrations, presented as fold induction relative to DMSO control. Activation with αCD3/αCD28-Dynabeads was performed as control. (C) Flow cytometry of T-cell activation markers CD69 and CD25 in the same experiment. For each treatment group, CD69^+ (left) and CD25^+ (right). Shown as percentage of positive cells relative to αCD3/αCD28-treated cells (D) Cell viability as measured by CellTiter-Blue® Cell Viability assay (Promega) and Zombie Violet Fixable Viability kit (BioLegend) and presented as percentage of DMSO control treated cells. Data points indicate average of three technical replicates of donor #1036. (E-G) Same experiments as in b-d but performed with CD4^+ T cells obtained from three additional individuals (2013, 2185, 2511) with a single concentration of AZ391 (500 nM). In f and g, average of the three biological replicates (±SD) is show. For (F), for each treatment group, CD69^+ (left) and CD25^+ (right).

[2] = test system: A2 J-Lat cells, A72 J-Lat cells, and primary CD4+ T cells; assay: ApoTox-Glo Triplex Assay: viability, cytotoxicity, caspase-3/7; assay type: cell-based; settings: A2, A72 J-Lat cells and primary CD4+ T cells from 2 blood donors
Description: FIGS. 22A-D provide data showing the viability, cytotoxicity and apoptosis of cells treated with SMYD2 inhibitor X2. ApoTox-Glo™ Triplex Assays (Promega) were performed in AZ391-treated A2 J-Lat cells (A), A72 J-Lat cells (B), and primary CD4^+ T cells from 2 independent blood donors (C) and (D). […] All measurements were repeated at least three times and an average of one experiment of three technical replicates (±SD) is shown.

[3] = test system: J-Lat A72 cell line (LTR-GFP); settings: A72 J-Lat cells; for activation of GFP expression / reactivation of the HIV-LTR: single agent
Description: J-Lat (clones A2 and A72) cell lines were cultured as described in Jordan et al., EMBO J. 2003 Apr. 15:22(8):1868-77. Human αCD3/αCD28 beads (Life Technologies) were used at a concentration of 1 bead/cell ratio. JQ1 (Sigma-Aldrich) was used at a concentration of 0.1-10 μM. Ingenol 3,20-dibenzoate (Sigma-Aldrich) was used at concentrations of 5-200 nM, and SAHA (Sigma-Aldrich) was used at concentrations of 110 nM, 330 nM, or 1 μM.
HEK293T cells were obtained from the American Type Culture Collection. J-Lat (clones A2, A72, and 5A8) cell lines were described (Chan et al., 2013; Jordan et al., 2003). HEK293T cells were cultured in DMEM supplemented with 10% FBS, 1% L-glutamine and 1% penicillin-streptomycin (Life Technologies). J-Lat cells were cultured in RPMI supplemented with 10% FBS, 1% L-glutamine and 1% penicillin-streptomycin (Life Technologies). […] TNFα (Sigma-Aldrich) was used at 0.5-10 ng/ml. Human αCD3/αCD28 Dynabeads (Invitrogen) were used at a 1 bead/cell ratio. JQ1 (Cayman Chemical) was used at 0.1-10 μM. Ingenol 3,20-dibenzoate (Santa Cruz Biotechnology) was used at 5-200 nM, and SAHA (Merck) was used at 110 nM, 330 nM, or 1 μM. Phorbol 12-myristate 13-acetate (PMA) (Sigma) was used at 10 nM and ionomycin (Sigma) was used at a concentration of 500 nM. UNC926 (Tocris Bioscience) was used at a concentration of 10 nM-100 μM. AZ505. AZ506, and AZ391 were used at a concentration of 10 nM-10 μM.
ShRNA-expressing lentiviral vectors were purchased from Sigma-Aldrich. The pLKO.1 vector containing a scrambled shRNA was used as control. […] J-Lat 5A8, A72 and A2 cells were spininfected with virus (1 ng of p24 per 10^6 cells) containing shRNAs against KMTs or nontargeting control shRNAs and were selected with puronycin (2 μg/ml: Sigma). After 7 days of selection, cells were treated with the indicated concentration of drugs. The percentage of GFP^+ cells was determined after 18 h using a MACSQuant VYB FACS analyzer (Miltenyi Biotech GmbH). Cell viability was monitored by forward-and-side scatter analysis. Analysis was conducted on 3×10,000 live cells per condition. Data were analyzed using FlowJo 9.5 (Tree Star).

Q: Which results are given for `N#Cc1cc(C(=O)NCCCN2CCCC2)cc(-c2ccccc2N2CCN(CCc3c[nH]c4ccccc34)CC2)c1` [AZ391]?
A: cell viability [1]: no impact on cell viability; viability, cytotoxicity and caspase-3/7 activity [2]: reduced cell viability and increased cytotoxicity and caspase-3/7 activity at concentrations above 5 μM; also recorded: did not reduce viability nor increase cytotoxicity and caspase-3/7 activity at concentrations lower than 5 μM; reactivation of HIV-LTR, combination effect ([3]; co-treatment with JQ1): more than additive effects; reactivation of HIV-LTR, combination effect ([3]; co-treatment with SAHA): less; reactivation of HIV-LTR, combination effect ([3]; co-treatment with ingenol 3,20-dibenzoate): practically no combination effect; GFP+ cells ([3]; high concentrations (5 and 10 μM)): up to 30%; activation of GFP expression / reactivation of the HIV-LTR [3]: activated GFP expression at high concentrations; activation of GFP expression / reactivation of the HIV-LTR ([3]; listed as X2): the same effect was observed in A72 cells

From patent US11807852B2, “Compositions and methods for reactivating latent immunodeficiency virus” (The J. David Gladstone Institutes, a testamentary trust …, priority 2014, dated 2023)
